The values below come from US6603046B1, “Bis-aromatic a,β-unsaturated ketones” (Lica Pharmaceuticals A/S, priority 1992, dated 2003).

Like-named read-outs stand apart in the source and are kept apart here.

The test system of series [1] is L. major promastigotes. Description: L. major promastigotes from 4-days cultures, 3H-thymidine uptake (Examples 5, 14). In kind it is cell-based, Leishmania major. As to conditions: for inhibition at 0.5 µg/mL / inhibition at 1 µg/mL / inhibition at 5 µg/mL / inhibition at 10 µg/mL: Leishmania major, read-out: percentage inhibition of promastigotes (upper figure); for inhibition at 0.5 µg/mL: 0.5 μg/ml; for inhibition at 1 µg/mL: 1 μg/ml; for inhibition at 5 µg/mL: 5 μg/ml. How it is done: Parasite cultures. The same parasite culture as described in Example 4. Promastigotes were harvested on day 4 of the culture and used for the parasiticidal assay.
Effect on promastigotes. […] Following incubation, […] of ^3H-thymidine was added to each well and further incubated for 18 hrs. Promastigotes were then harvested on filter paper by means of a cell harvester (Skatron, Lierbyen, Norway), extensively washed with distilled water and counted in a scintillation counter (Minaxi Ti-Carb 4000, United Technologies, Packard, USA).
L. major promastigotes. The L. major promastigotes were prepared as described in Example 4 and harvested after 4 days.

The test system of series [2] is human lymphocytes. Description: Lymphocyte Proliferation Assay, 3H-thymidine incorporation (Example 13). The note with it: for inhibition at 0.5 µg/mL / inhibition at 1 µg/mL / inhibition at 5 µg/mL / inhibition at 10 µg/mL: Homo sapiens, Lymphocyte.
For series [3], the system named is chloroquine resistant P. falciparum DD2 strain. Description: In vitro growth of P. falciparum DD2, 3H-hypoxanthine uptake (Example 15). The class given is cell-based, Plasmodium falciparum. The note with it: title: percentage inhibition of 3H-hypoxanthine uptake.
The mark [4] stands for this setting: read-out: inhibition of lymphocytes (lower figure).

Take `COc1ccc(CCC(=O)c2ccco2)c(OC)c1`: in series [1] (Table 14.1), the inhibition at 0.5 µg/mL was 9.5%, the inhibition at 1 µg/mL was found to be 9.4% and the inhibition at 5 µg/mL was determined as 55.1%. For the same compound, the inhibition at 10 µg/mL in series [1] (Table 14.1, 10 μg/ml) was found to be 89.6%. Besides, in series [2] (setting [4]), the inhibition at 0.5 µg/mL is 3.6%, the inhibition at 1 µg/mL amounted to 11.7%, the inhibition at 5 µg/mL worked out at 33.6% and the inhibition at 10 µg/mL was 41.9%.

For `COc1ccc(CCC(=O)c2ccc[nH]2)c(OC)c1`, in series [1] (Table 14.1), the inhibition at 0.5 µg/mL turned out to be 0.6%, the inhibition at 1 µg/mL was determined as 9.4% and the inhibition at 5 µg/mL was determined as 18.5%. Moreover, in series [1] (Table 14.1, 10 μg/ml), the inhibition at 10 µg/mL was 40.6%. Moreover, in series [2] (setting [4]), the inhibition at 0.5 µg/mL was 10%, the inhibition at 1 µg/mL was determined as 2%, the inhibition at 5 µg/mL was 20% and the inhibition at 10 µg/mL amounted to 41.9%.

For the compound `COc1cccc(/C=C/C(=O)c2ccc(O)cc2)c1OC` [2,3-Dimethoxy-4′-hydroxychalcone], the “Growth in % of control (mean ± SEM)” value in series [3] (0.5 μg/ml) amounted to 46 ± 22%; in series [3] (1 μg/ml), 54.4 ± 22.2%; in series [3] (5 μg/ml), 53.5 ± 20.1%; in series [3] (10 μg/ml) it was 67.6 ± 12.4%.

For the compound `CCOc1ccc(/C=C/C(=O)c2ccccc2O)c(OCC)c1` [2,4-Diethoxy-2′-hydroxychalcone], the “Growth in % of control (mean ± SEM)” value in series [3] (0.5 μg/ml) is 23.1 ± 8.3%; in series [3] (1 μg/ml) it was 20.8 ± 8.8%; in series [3] (5 μg/ml), 33.7 ± 8.2%; in series [3] (10 μg/ml), 55.3 ± 7.4%.

As to `CCOc1ccc(/C=C/C(=O)c2ccc(O)cc2)c(OCC)c1` [2,4-Diethoxy-4′-hydroxychalcone], the “Growth in % of control (mean ± SEM)” value in series [3] (0.5 μg/ml) is listed as 14.5 ± 7.2%; in series [3] (1 μg/ml), 9 ± 7%; in series [3] (5 μg/ml) it was 54.2 ± 10.2%; in series [3] (10 μg/ml), 86.8 ± 7.3%.

On to `COCOc1ccc(C(=O)/C=C/c2ccc(OC)cc2OC)cc1` [2,4-Dimethoxy-4′-methoxymethoxychalcone, 2,4-dimethoxy-4′-methoxymethoxychalcone], for which the “Growth in % of control (mean ± SEM)” value in series [3] (0.5 μg/ml) was found to be 14.0 ± 6.8%; in series [3] (1 μg/ml), 0 ± 10.9%; in series [3] (5 μg/ml) it was 0 ± 10.2%; in series [3] (10 μg/ml) it was 40.8 ± 9.3%.

In the case of `COc1ccc(OC)c(/C=C/C(=O)c2ccc(O)cc2)c1` [2,5-Dimethoxy-4′-hydroxychalcone], the “Growth in % of control (mean ± SEM)” value in series [3] (0.5 μg/ml) is 14 ± 75%; in series [3] (1 μg/ml), 21.2 ± 11.1%; in series [3] (5 μg/ml) it was 68.4 ± 6.8%; in series [3] (10 μg/ml) it was 92.5 ± 2.4%.

As to `COc1ccc(OC)c(/C=C/C(=O)c2ccccc2)c1` [2,5-Dimethoxychalcone], the “Growth in % of control (mean ± SEM)” value in series [3] (0.5 μg/ml) is reported as 11 ± 7.7%; in series [3] (1 μg/ml), 5.5 ± 5.1%; in series [3] (5 μg/ml), 27.1 ± 5.3%; in series [3] (10 μg/ml), 58.8 ± 6.4%.

Consider `C=CCOc1ccc(C(=O)/C=C/c2ccc(OC)c(OC)c2)cc1` [3,4-Dimethoxy-4′-allyloxychalcone, 3,4-dimethoxy-4′-prop-2-enyloxychalcone], for which the “Growth in % of control (mean ± SEM)” value is given as 0 ± 11.3% in series [3] (0.5 μg/ml), 9.4 ± 15.8% in series [3] (1 μg/ml), 16.2 ± 5.5% in series [3] (5 μg/ml) and 52.8 ± 4.7% in series [3] (10 μg/ml).

For `C=CCOc1ccc(C(=O)/C=C/c2cc(OC)cc(OC)c2)cc1` [3,5-Dimethoxy-4′-allylchalcone, 3,5-dimethoxy-4′-prop-2-enyloxychalcone], the “Growth in % of control (mean ± SEM)” value in series [3] (0.5 μg/ml) turned out to be 9.1 ± 5.2%; in series [3] (1 μg/ml), 3.4 ± 4.7%; in series [3] (5 μg/ml), 44 ± 8.1%; in series [3] (10 μg/ml), 79.1 ± 10.5%.

Turning to `O=C(/C=C/c1ccccc1)c1ccccc1` [chalcone, reference compound], in series [1], the “activity against Leishmania parasites in vitro” value was “very high activity”. For the same compound, the “toxicity against human lymphocytes” value in series [2] is “extremely high toxicity”.

As to `O=C(/C=C/c1ccccc1)c1ccccc1` [drawing 60], in series [1] (Table 14.1), the inhibition at 0.5 µg/mL turned out to be 21.6%, the inhibition at 1 µg/mL was found to be 34.8% and the inhibition at 5 µg/mL is 91.9%. For the same compound, the inhibition at 10 µg/mL in series [1] (Table 14.1, 10 μg/ml) amounted to 97.3%. Also, in series [2] (setting [4]), the inhibition at 0.5 µg/mL amounted to 2%, the inhibition at 1 µg/mL is 7.3%, the inhibition at 5 µg/mL worked out at 91% and the inhibition at 10 µg/mL worked out at 100%.

Turning to `O=C(/C=C/c1ccc(O)cc1)c1ccc(O)cc1` [drawing 63], the inhibition at 10 µg/mL in series [1] was 53.1 ± 7.9%; in series [2] (read-out: inhibition of lymphocytes (lower figure), response to PHA, 10 μg/ml), 94.8%. Besides, the inhibition at 0.5 µg/mL in series [1] (Table 14.1) came to 22.5 ± 10%; in series [2] (setting [4]), 0%. Also, the inhibition at 1 µg/mL is 26.6 ± 7.6% in series [1] (Table 14.1) and 0% in series [2] (setting [4]). Moreover, the inhibition at 5 µg/mL in series [1] (Table 14.1) was 34.6 ± 10.5%; in series [2] (setting [4]), 96.3%.

Turning to `COc1ccc(C(=O)/C=C/c2ccccc2)cc1` [drawing 66], in series [1] (Table 14.1), the inhibition at 0.5 µg/mL is 20.6%, the inhibition at 1 µg/mL was determined as 26.3% and the inhibition at 5 µg/mL came to 68.1%. Also, the inhibition at 10 µg/mL in series [1] (Table 14.1, 10 μg/ml) came to 85.5%. Besides, in series [2] (setting [4]), the inhibition at 0.5 µg/mL is 2%, the inhibition at 1 µg/mL came out at 7.5%, the inhibition at 5 µg/mL was found to be 91% and the inhibition at 10 µg/mL is 100%.

As for `COc1cccc(/C=C/C(=O)c2ccc(O)cc2)c1OC` [drawing 69], in series [1] (Table 14.1), the inhibition at 0.5 µg/mL is 32%, the inhibition at 1 µg/mL was 43% and the inhibition at 5 µg/mL came out at 95.2 ± 4.7%. Besides, in series [1] (Table 14.1, 10 μg/ml), the inhibition at 10 µg/mL turned out to be 97.1 ± 3.5%. In series [2] (setting [4]), the inhibition at 0.5 µg/mL worked out at 2%, the inhibition at 1 µg/mL was 7.5%, the inhibition at 5 µg/mL was 89.3% and the inhibition at 10 µg/mL was 99.8%.

Regarding `COc1cc(/C=C/C(=O)c2ccc(O)cc2O)ccc1O` [drawing 74], in series [1] (Table 14.1), the inhibition at 0.5 µg/mL was 7.8%, the inhibition at 1 µg/mL is 14.3% and the inhibition at 5 µg/mL turned out to be 56.7%. Also, the inhibition at 10 µg/mL in series [1] (Table 14.1, 10 μg/ml) came out at 83.3%. In series [2] (setting [4]), the inhibition at 0.5 µg/mL amounted to 2%, the inhibition at 1 µg/mL worked out at 6%, the inhibition at 5 µg/mL was 9.5% and the inhibition at 10 µg/mL was found to be 38.3%.

Regarding `COCOc1ccc(C(=O)/C=C/c2ccc(OC)cc2OC)cc1` [drawing 90], in series [1] (Table 14.1), the inhibition at 0.5 µg/mL was determined as 22.8 ± 9.7%, the inhibition at 1 µg/mL turned out to be 27.6 ± 10.9% and the inhibition at 5 µg/mL turned out to be 50.2 ± 13%. Further, the inhibition at 10 µg/mL in series [1] (Table 14.1, 10 μg/ml) stood at 65.4 ± 16.1%. In addition, in series [2] (setting [4]), the inhibition at 0.5 µg/mL came to 0%, the inhibition at 1 µg/mL was 5.1%, the inhibition at 5 µg/mL was 11.2% and the inhibition at 10 µg/mL was 15.4%.

For the compound `COc1ccc(CCC(=O)c2ccc(O)cc2)c(OC)c1` [drawing 92], in series [1] (Table 14.1), the inhibition at 0.5 µg/mL is 8.5 ± 1.8%, the inhibition at 1 µg/mL stood at 5.6 ± 5.4% and the inhibition at 5 µg/mL is 22.5 ± 9.7%. In addition, the inhibition at 10 µg/mL in series [1] (Table 14.1, 10 μg/ml) was 31.3 ± 16%. Further, in series [2] (setting [4]), the inhibition at 0.5 µg/mL came to 0%, the inhibition at 1 µg/mL worked out at 0%, the inhibition at 5 µg/mL was 3% and the inhibition at 10 µg/mL was 1.5%.
